Test results: article PMC8868518, “Exploring Titanium(IV) Complexes as Potential Antimicrobial Compounds” (Antibiotics, 2022)
Where a name gives a salt, the structure may show the parent alone. Read-outs that look alike come from different tables or passages of the source.

What was measured:
[1] = system: K. pneumoniae (ATCC 700603); assay: CO-ADD antibacterial assay, growth inhibition (OD600); format: cell-based, Klebsiella pneumoniae; conditions: up to 32 μg/mL
Procedure: (§1) Dry compounds ranging from 1–2 mg were weighed into properly labeled Eppendorf tubes and sealed with parafilm. The compounds were used as received by the CO-ADD. For the screenings, most compounds were dissolved to a stock concentration of 10 mg/mL in DMSO. K2[Ti(Citrate)3], Na3Citrate, and K2[TiO(Oxalate)2] were dissolved in warm water. […] Samples were diluted in water to a final testing concentration of 32 µg/mL while keeping the final co-solvent concentration to a maximum of 0.5%. Where applicable, compounds were serially diluted 1:2 fold eight times. Each sample concentration was prepared in 384-well plates, non-binding surface plate (NBS; Corning 3640) for each bacterial/fungal strain, tissue-culture treated (TC-treated; Corning 3712/3764), black for mammalian cell types and polypropylene 384-well (PP; Corning 3657) for hemolysis assays, all in duplicate (n = 2), and keeping the final DMSO concentration to a maximum of 0.5%. All sample preparation was conducted using liquid handling robots.
(§2) For the bacterial assays, four Gram-negative bacteria (E. coli (ATCC 25922, Manassas, VA, USA); K. pneumoniae (ATCC 700603), A. baumannii; (ATCC 19606), and P. aeruginosa (ATCC 27853) and the Gram-positive bacteria (S. aureus MRSA (ATCC 43300) were used. Each strain was cultured in cation-adjusted Mueller Hinton broth (CAMHB; Bacto Laboratories 212322, Mount Pritchard, Australia) at 37 °C overnight. A sample of each culture was then diluted 40-fold in fresh CAMHB and incubated at 37 °C for 1.5–3 h. The resultant mid-log phase cultures were diluted with CAMHB (CFU/mL measured by OD600), then added to each well of the compound-containing plates (384-well non-binding surface (NBS) plates; Corning CLS3640, Millipore Sigma, Burlington, MA, USA), giving a cell density of 5 × 10^5 CFU/mL and a total volume of 50 µL. Plates were covered and incubated at 37 °C for 18 h without shaking. Inhibition of bacterial growth was determined by measuring absorbance at 600 nm (OD600) with a Tecan M1000 Pro monochromator plate reader, using media-only as negative control and bacteria without inhibitors as a positive control. […] Colistin sulfate (Sigma C4461) and vancomycin HCl (Sigma 861987) were used as internal controls on each plate for Gram-negative and Gram-positive bacteria, respectively.

C. albicans (ATCC 90028) = assay: CO-ADD antifungal assay, growth inhibition (OD630); format: cell-based, Candida albicans; conditions: up to 32 μg/mL
Procedure: (§3) The compounds were used as received by the CO-ADD. For the screenings, most compounds were dissolved to a stock concentration of 10 mg/mL in DMSO. K2[Ti(Citrate)3], Na3Citrate, and K2[TiO(Oxalate)2] were dissolved in warm water. [Cu(Deferasirox)(H2O)]2 was dissolved in pyridine after its solubility was determined to be excellent in pyridine due to coordination of the solvent to the metal producing [Cu(Deferasirox)(pyridine)]2 in situ. […] Each sample concentration was prepared in 384-well plates, non-binding surface plate (NBS; Corning 3640) for each bacterial/fungal strain, tissue-culture treated (TC-treated; Corning 3712/3764), black for mammalian cell types and polypropylene 384-well (PP; […] All sample preparation was conducted using liquid handling robots. For the fungal assays, the fungi (C. albicans (ATCC 90028) and C. neoformans) (ATCC 208821) were used. Both fungi (yeast) strains were cultured for 3 days on Yeast Extract-Peptone Dextrose (YPD; Becton Dickinson 242720, Thermo Fisher Scientific, Waltham, MA, USA) agar at 30 °C. A yeast suspension of 1 × 10^6 to 5 × 10^6 CFU/mL (as determined by OD530) was prepared from five colonies from the agar plates, subsequently diluted with Yeast Nitrogen Base media (YNB; Becton Dickinson 233520, Thermo Fisher Scientific, Waltham, MA, USA), and added to each well of the compound-containing plates (384-well plates, NBS; Corning CLS3640) giving a final cell density of 2.5 × 10^3 CFU/mL and a total volume of 50 μL. Plates were covered and incubated at 35 °C for 36 h without shaking. […] Sigma R7017) and incubation at 35 °C for 2 h, using media-only as a negative control and fungi without inhibitors as a positive control. […] Fluconazole (Sigma F8929) was used as an internal control on each plate for both strains.

MRC-5 cells [2] = conditions: cited from earlier work
[3] = system: A. baumannii (ATCC 19606); assay: CO-ADD antibacterial assay, growth inhibition (OD600); format: cell-based, Acinetobacter baumannii; conditions: up to 32 μg/mL
Procedure: as §1, §2

[4] = system: HEK293 ATCC CRL-1573 human embryonic kidney cells; assay: CO-ADD cytotoxicity assay (resazurin); format: cell-based; conditions: at the maximum concentration tested
Procedure: The compounds were used as received by the CO-ADD. For the screenings, most compounds were dissolved to a stock concentration of 10 mg/mL in DMSO. K2[Ti(Citrate)3], Na3Citrate, and K2[TiO(Oxalate)2] were dissolved in warm water. [Cu(Deferasirox)(H2O)]2 was dissolved in pyridine after its solubility was determined to be excellent in pyridine due to coordination of the solvent to the metal producing [Cu(Deferasirox)(pyridine)]2 in situ. […] Each sample concentration was prepared in 384-well plates, non-binding surface plate (NBS; Corning 3640) for each bacterial/fungal strain, tissue-culture treated (TC-treated; Corning 3712/3764), black for mammalian cell types and polypropylene 384-well (PP; […] All sample preparation was conducted using liquid handling robots. HEK293 ATCC CRL-1573 human embryonic kidney cells were counted manually in a Neubauer hemocytometer and added to compound-containing plates (384-well plates, tissue culture-treated (TC); […] Life Technologies 11995-073) with 10% FBS (GE SH30084.03).

E. coli (ATCC 25922) = assay: CO-ADD antibacterial assay, growth inhibition (OD600); format: cell-based, Escherichia coli; conditions: up to 32 μg/mL
Procedure: as §1, §2

[5] = system: C. neoformans (ATCC 208821); assay: CO-ADD antifungal assay, growth inhibition (resazurin, OD600-570); format: cell-based, Cryptococcus neoformans; conditions: up to 32 μg/mL
Procedure: as §3

[6] = system: S. aureus MRSA (ATCC 43300); assay: CO-ADD antibacterial assay, growth inhibition (OD600); format: cell-based, Staphylococcus aureus
Procedure: as §1, §2

[7] = system: P. aeruginosa (ATCC 27853); assay: as above; format: cell-based, Pseudomonas aeruginosa; conditions: up to 32 μg/mL
Procedure: as §1, §2

[8] = cited from earlier work
MRC-5 cells [9] = assay: MRC-5 cell viability, dose-response treatment, MTT assay; format: cell-based, human; conditions: MRC-5 cells, MTT, 72 h, pH 7.4, n = 6, this work
Procedure: A thawed stock of MRC-5 cells was washed with 1X PBS and resuspended in phenol red DMEM media (supplemented with 10% FBS and 1% of penicillin-streptomycin) and then seeded in a 100 mm × 20 mm (complete, O.D. x H) petri dish and grown in a 5% (v/v) CO2 humidified atmosphere at 37 °C. At least three passages were performed to ensure the integrity of the cells. After this point, cells were collected, thoroughly washed with 1X PBS, and then resuspended in phenol red-free DMEM (supplemented with 10% FBS, 1% Streptomycin/Penicillin, and 2.4 mM L-glutamine) at a 2.0 × 10^5 cells/mL concentration. Approximately 100 µL of the cell solution was seeded into wells of several 96-well plates to begin the MTT assay, which was performed in the 5% (v/v) CO2 humidified atmosphere at 37 °C. At least one lane of wells in each plate was supplied media without cells as a control. […] Most of the compounds were dissolved in 1X PBS buffer at pH 7.4. […] Titanocene dichloride was prepared as a fresh stock solution in DMSO and then diluted in 0.1 M NaCl (aq) instead of 1X PBS (to minimize hydrolysis induced precipitation) to the desired concentration while maintaining a constant 1% (v/v) DMSO background (0.5% DMSO after mixing with the well media). A control of cells treated with media containing 1% (v/v) DMSO was included in the study. The titanocene solutions were used within an hour of preparation in the final cell solution. […] At 3 h before a total of 72 h of incubation with the compounds, the cells were treated with 25 µL of 9 mg/mL MTT prepared in 1X PBS and sterile-filtered. Upon completion of the three hours, 50 µL of 10% (w/v) SDS (prepared in 0.1 M Tris buffer at pH 11) was added to solubilize the purple formazan product crystals and left overnight in the incubator. Control wells in the plates consisted of: (1) Untreated cells + MTT as the measure of 100% viable cell growth in the media and (2) Media with no cells + MTT as the measure of zero cells in the media. Two sets of compounds could be tested per plate. The plates were read at the wavelength of 570 nm (absorbance of the formazan product at pH 10.0) and 800 nm (background control) using a Tecan plate reader. The absorbance of all wells was compared to the absorbance of the untreated cells with the MTT set as the 100% viable cell standard and the absorbance of the zero cell control set as the 0% viable cell standard. […] Nonlinear regression in Origin 8.5 was utilized to fit the growth curves using the pharmacology dose–response equation to determine the half-maximal inhibitory concentration (IC50) and the corresponding standard deviation. All samples were tested six times.

[10] = predicted or measured MIC, ≥75% growth inhibition
[11] = predicted or measured MIC, ≥75% growth inhibition, 36 h
[12] = predicted or measured MIC, lowest concentration with ≥75% growth inhibition, 0.25-32 μg/mL, 18 h

Molecule | MIC K. pneumoniae [1, 10] [µg/mL] | Dmax K. pneumoniae, maximum % inhibition [1] [%] | MIC C. albicans (C. albicans (ATCC 90028); [11]) [µg/mL] | Dmax C. albicans, maximum % inhibition (C. albicans (ATCC 90028)) [%] | MIC A. baumannii [3, 10] [µg/mL] | Dmax A. baumannii, maximum % inhibition [3] [%] | MIC E. coli (E. coli (ATCC 25922); [10]) [µg/mL] | Dmax E. coli, maximum % inhibition (E. coli (ATCC 25922)) [%] | MIC C. neoformans [5, 11] [µg/mL] | Dmax C. neoformans, maximum % inhibition [5] [%] | MIC S. aureus (MRSA) [6, 12] [µg/mL] | Dmax S. aureus (MRSA), maximum % inhibition ([6]; up to 32 μg/mL) [%] | MIC P. aeruginosa [7, 10] [µg/mL] | Dmax P. aeruginosa, maximum % inhibition [7] [%] | other results
O=C(O)CN(CCN(CC(=O)O)Cc1ccccc1O)Cc1ccccc1O [Compound 5, N,N′-di(o-hydroxybenzyl)ethylenediamine-N,N′-diacetic acid monohydrochloride hydrate, reference compound] |  |  |  |  |  |  |  |  |  |  |  |  |  |  | MIC ([1]; Klebsiella pneumoniae, ATCC700603, predicted or measured MIC, ≥75% growth inhibition): > 32 µg/mL; Dmax ([1]; Klebsiella pneumoniae, ATCC700603, read-out: Dmax K. pneumoniae, maximum % inhibition): 52.9%; MIC (C. albicans (ATCC 90028); Candida albicans, ATCC90028, predicted or measured MIC, ≥75% growth inhibition, 36 h): > 32 µg/mL; Dmax (C. albicans (ATCC 90028); Candida albicans, ATCC90028, read-out: Dmax C. albicans, maximum % inhibition): 3.5%; IC50 ± SD (µg/mL) (MRC-5 cells [2]): >>44.3 µg/mL; IC50 (MRC-5 cells [2]; read-out: IC50 ± SD): > 100 µM; MIC ([3]; Acinetobacter baumannii, ATCC19606, predicted or measured MIC, ≥75% growth inhibition): > 32 µg/mL; Dmax ([3]; Acinetobacter baumannii, ATCC19606, read-out: Dmax A. baumannii, maximum % inhibition): 68.3%; inhibition of HEK293 cell proliferation [4]: ~50%; MIC (E. coli (ATCC 25922); Escherichia coli, ATCC25922, predicted or measured MIC, ≥75% growth inhibition): > 32 µg/mL; Dmax (E. coli (ATCC 25922); Escherichia coli, ATCC25922, read-out: Dmax E. coli, maximum % inhibition): 51.6%; MIC ([5]; Cryptococcus neoformans, ATCC208821, predicted or measured MIC, ≥75% growth inhibition, 36 h): > 32 µg/mL; Dmax ([5]; Cryptococcus neoformans, ATCC208821, read-out: Dmax C. neoformans, maximum % inhibition): -17.5%; MIC ([6]; Staphylococcus aureus, predicted or measured MIC, lowest concentration with ≥75% growth inhibition, 0.25-32 μg/mL, 18 h): > 32 µg/mL; Dmax ([6]; Staphylococcus aureus, up to 32 μg/mL, read-out: Dmax S. aureus (MRSA), maximum % inhibition): 24.3%; MIC ([7]; Pseudomonas aeruginosa, ATCC27853, predicted or measured MIC, ≥75% growth inhibition): > 32 µg/mL; Dmax ([7]; Pseudomonas aeruginosa, ATCC27853, read-out: Dmax P. aeruginosa, maximum % inhibition): 69%
[Cl-].[Cl-].[Ti+4].c1cc[cH-]c1.c1cc[cH-]c1 [Compound 13, Bis(cyclopentadienyl)titanium(IV) dichloride, reference compound] | >32 | 16.65 | >32 | 16.15 | >32 | 15.78 | >32 | 23.76 | >32 | 6.5 | >32 | 51.55 | >32 | 16.01 | solution stability (in words) ([8]; pH 7.4): extremely hydrolysis prone; IC50 ± SD (µg/mL) (MRC-5 cells [9]): >>24.9 µg/mL; IC50 (MRC-5 cells [9]; read-out: IC50 ± SD): > 100 µM
Ti(BHPT)2 [Compound 9] | >32 | 6.35 | >32 | 4.27 | >32 | 1.55 | >32 | −0.56 | >32 | −1.7 | >32 | 7.82 | >32 | 10.27 | solution stability (in words) ([8]; pH 4): highly stable in solution; IC50 (MRC-5 cells [2]; approximated relative IC50, compound inhibits proliferation at a maximum of 25%, read-out: IC50 (µM), approximated relative IC50): ~2.4 µM; IC50 (µg/mL), approximated relative IC50 (MRC-5 cells [2]; approximated relative IC50, compound inhibits proliferation at a maximum of 25%): ~1.5 µg/mL; activity against MRSA (in words) ([6]; CO-ADD screen, 32 μg/mL): inactive
